Tested on: protein synthesis (subcellular fractions of rat liver)
Format: biochemical
Details: compared with native trichokirin
Description: The in vitro protocol uses appropriately complemented subcellular fractions of rat liver capable of incorporating ^14 C-phenylalanine in the presence of an artificial messenger RNA: polyuridylic acid.
The procedure employed for preparing the subcellular fractions and measuring the incorporation of ^14 C-phenylalanine is an adaptation of the method described in BBA 312, 608-615 (1973), using both a microsomal fraction and a cytosol fraction of the rat hepatocytes. The sample containing the trichokirin is introduced in the form of a solution appropriately diluted in a 50 mM tris-HCl buffer, pH 7.6, containing 0.2% of 2-mercaptoethanol and 15 micrograms/ml of bovine serum albumin. The count data are used to calculate, relative to a reference medium without inhibitor, the percentage inhibition of the incorporation of ^14 C-phenylalanine for each reaction medium.
The values obtained together make it possible to determine the concentration of trichokirin (or IC50) which inhibits the incorporation of ^14 C-phenylalanine by 50% under the experimental conditions.

Substance: mercaptosuccinoyl-trichokirin [modified trichokirin]
- effect of the modification on activity: does not cause a significant loss of activity

— patent US5037960A, “Inhibitor of protein synthesis, process for its isolation, its use and pharmaceutical compositions in which it is present” (priority 1986, dated 1991)
